Converted amounts (≈) assume the structure as drawn. Read-outs that look alike come from different tables or passages of the source. Starred links: 1 amine or outer side, 2 acyl side, 3 side chain; linkers in the order of their positions; H or OH if unused. Positions of bridges follow the written chain, without caps; N, C: chain ends. Non-standard residues stand in square brackets, D forms with d. Residues, ends and D or L forms follow the SMILES beside them. *: point of attachment. Decanoyl(3R-OH) = CCCCCCC[C@@H](O)CC(=O)*; dBip = N[C@H](Cc1ccc(-c2ccccc2)cc1)C(=O)O; azaLeu = CC(C)CN(N[*:1])C(=O)[*:2]; dDab = NCC[C@@H](N)C(=O)O; Dab = NCC[C@H](N)C(=O)O; Dap = NC[C@H](N)C(=O)O
Key:
A. baumannii ATCC 19606 = conditions: ATCC 19606
Experimental: (§1) Bacteria were either obtained from American Type Culture Collection (ATCC; Manassas, Va., USA) or independent academic clinical isolate collections, as listed in Table 18 below. Bacteria were cultured in Nutrient broth (NB; Bacto Laboratories, catalogue No. 234000) or Mueller Hinton broth (MHB; Bacto Laboratories, catalogue No. 211443) at 37° C. overnight with shaking (˜180 RPM). A sample of each culture was then diluted 50-fold in fresh MHB and incubated at 37° C. for 2-3 h with shaking (˜180 RPM). Compound stock solutions were prepared as 0.64 mg/mL or 2.56 mg/mL in water. The compounds, at twice the final desired concentration, were serially diluted 2-fold across the wells of 96-well plates (Polystyrene, Corning, catalogue No. 3370). Mid-log phase bacterial cultures (after 2-3 h incubation) were diluted to a final concentration of 1×10^6 colony forming units (CFU)/mL, and 50 μL was added to each well giving a final cell density of 5×10^5 and a compound concentration range of 32 μg/mL to 0.015 μg/mL (128-0.06 μg/mL against P. aeruginosa PA9704).

A. baumannii GN_093 PmxR = conditions: GN 093 PmxR
Experimental: as §1

E. coli ATCC 25922 = conditions: ATCC 25922
Experimental: as §1

K. pneumoniae ATCC 13883 = conditions: ATCC 13883
Experimental: as §1

[1] = test system: K. pneumoniae ATCC 700603, MDR; conditions: ATCC 700603
Experimental: as §1

[2] = test system: K. pneumoniae ATCC BAA-2146, NDM-1 pos; conditions: ATCC BAA-2146
Experimental: as §1

[3] = test system: K. pneumoniae GN_102 PmxR; conditions: GN 102 PmxR
Experimental: as §1

[4] = test system: K. pneumoniae GN_106, PmxR; conditions: GN 106, PmxR
Experimental: as §1

P. aeruginosa ATCC 27853 = conditions: ATCC 27853
Experimental: as §1

[5] = test system: P. aeruginosa GN_043, PmxR
Experimental: as §1

[6] = test system: P. aeruginosa GN_105, PmxR; conditions: GN 105, PmxR
Experimental: as §1

[7] = test system: S. aureus ATCC 25923, MSSA; conditions: ATCC 25923
Experimental: as §1

Row | Structure (SMILES) | MIC A. baumannii ATCC 19606 (A. baumannii ATCC 19606) [mg/L] | MIC A. baumannii GN_093 PmxR (A. baumannii GN_093 PmxR) [mg/L] | MIC E. coli ATCC 25922 (E. coli ATCC 25922) [mg/L] | MIC K. pneumoniae ATCC 13883 (K. pneumoniae ATCC 13883) [mg/L] | MIC K. pneumoniae ATCC 700603, MDR [1] [mg/L] | MIC K. pneumoniae ATCC BAA-2146, NDM-1 pos [2] [mg/L] | MIC K. pneumoniae GN_102 PmxR [3] [mg/L] | MIC K. pneumoniae GN_106, PmxR [4] [mg/L] | MIC P. aeruginosa ATCC 27853 (P. aeruginosa ATCC 27853) [mg/L] | MIC P. aeruginosa GN_043, PmxR ([5]; polymyxin-resistant) [mg/L] | MIC P. aeruginosa GN_105, PmxR [6] [mg/L] | MIC S. aureus ATCC 25923, MSSA [7] [mg/L] | MIC A. baumannii Cl Ptyela 10073 4512:2, PmxR (A. baumannii GN_093 PmxR) [mg/L] | MIC K. pneumoniae Cl Koprana 10065 0661:1 PmxR [3] [mg/L] | MIC K. pneumoniae Cl 183-16357-20352, PmxR [4] [mg/L] | MIC, P. aeruginosa FADDI-PA070, PmxR ([5]; strain name as in Table 11) [mg/L] | MIC P. aeruginosa PA9704, PmxR [6] [mg/L] | also measured
1 | CCCCCCC[C@@H](O)CC(=O)N[C@@H](CCN)C(=O)N[C@H]1CCNC(=O)[C@H](CC(C)C)NC(=O)[C@H](CN)NC(=O)[C@H](CCN)NC(=O)[C@H](CC(C)C)NC(=O)[C@@H](Cc2ccc(-c3ccccc3)cc2)NC(=O)[C@H](CCN)NC1=O [compound 5565, 3(R)OH-nC9CO-L-Dab-cyc[L-Dab-L-Dab-D-Bip-L-Leu-L-Dab-L-Dap-L-Leu]] ({Decanoyl(3R-OH)}-[Dab][Dab][Dab][dBip]L[Dab][Dap]L; lactam 2-C) | 8 (≈ 7.23 µM) | 16 (≈ 14.5 µM) | 4 (≈ 3.62 µM) | 4 (≈ 3.62 µM) | 8 (≈ 7.23 µM) | 16 (≈ 14.5 µM) | 32 (≈ 28.9 µM) | 16 (≈ 14.5 µM) | 4 (≈ 3.62 µM) | 2 (≈ 1.81 µM) | 4 (≈ 3.62 µM) | 2 (≈ 1.81 µM) | – | – | – | – | – | –
2 | CCCCCCC[C@@H](O)CC(=O)N[C@H](CCN)C(=O)N[C@H]1CCNC(=O)[C@H](CC(C)C)NC(=O)[C@H](CCN)NC(=O)[C@H](CCN)NC(=O)N(CC(C)C)NC(=O)[C@@H](Cc2ccccc2)NC(=O)[C@H](CCN)NC1=O [compound 8803, 3(R)OH-nC9CO-D-Dab-cyc[L-Dab-L-DAB-D-Phe-azaLeu-L-Dab-L-Dab-L-Leu]] ({Decanoyl(3R-OH)}-[dDab][Dab][Dab][dF][azaLeu][Dab][Dab]L; lactam 2-C) | 8 (≈ 7.65 µM) | – | 2 (≈ 1.91 µM) | 8 (≈ 7.65 µM) | 8 (≈ 7.65 µM) | 8 (≈ 7.65 µM) | – | – | 4 (≈ 3.83 µM) | – | – | 16 (≈ 15.3 µM) | 32 (≈ 30.6 µM) | 2 (≈ 1.91 µM) | 4 (≈ 3.83 µM) | 1 (≈ 0.957 µM) | 2 (≈ 1.91 µM) | –
3 | CCCCCCC[C@@H](O)CC(=O)N[C@H](CCN)C(=O)N[C@H]1CCNC(=O)[C@H](CC(C)C)NC(=O)[C@H](CCN)NC(=O)[C@H](CCN)NC(=O)[C@H](CC(C)C)NC(=O)[C@@H](Cc2ccccc2)NC(=O)[C@H](CCN)NC1=O [Octapeptin C4 (631), 3(R)OH-nC9CO-D-Dab-cyc[L-Dab-L-Dab-D-Phe-L-Leu-L-Dab-L-Dab-L-Leu], reference compound] ({Decanoyl(3R-OH)}-[dDab][Dab][Dab][dF]L[Dab][Dab]L; lactam 2-C) | 4 (≈ 3.83 µM) | 4 (≈ 3.83 µM) | 4 (≈ 3.83 µM) | 8 (≈ 7.66 µM) | 8 (≈ 7.66 µM) | 8 (≈ 7.66 µM) | 2 (≈ 1.92 µM) | 4 (≈ 3.83 µM) | 2 (≈ 1.92 µM) | 2 (≈ 1.92 µM) | 2 (≈ 1.92 µM) | 16 (≈ 15.3 µM) | 4 (≈ 3.83 µM) | 2 (≈ 1.92 µM) | 4 (≈ 3.83 µM) | 2 (≈ 1.92 µM) | 2 (≈ 1.92 µM) | MIC, A. baumannii ATCC 19606 (A. baumannii ATCC 19606): 4 mg/L (≈ 3.83 µM); MIC, A. baumannii Cl Ptyela 10073 4512:2, PmxR (A. baumannii GN_093 PmxR): 4 mg/L (≈ 3.83 µM); MIC, E. coli ATCC 25922 (E. coli ATCC 25922): 4 mg/L (≈ 3.83 µM); MIC, K. pneumoniae ATCC 13883 (K. pneumoniae ATCC 13883): 8 mg/L (≈ 7.66 µM); MIC, K. pneumoniae ATCC 700603, MDR [1]: 8 mg/L (≈ 7.66 µM); MIC, K. pneumoniae ATCC BAA-2146, NDM-1 pos [2]: 8 mg/L (≈ 7.66 µM); MIC, K. pneumoniae Cl Koprana 10065 0661:1, PmxR [3]: 2 mg/L (≈ 1.92 µM); MIC, K. pneumoniae Cl 138-16347-20362, PmxR [4]: 4 mg/L (≈ 3.83 µM); MIC, P. aeruginosa ATCC 27853 (P. aeruginosa ATCC 27853): 2 mg/L (≈ 1.92 µM); MIC P. aeruginosa GN_043, PmxR [5]: 2 mg/L (≈ 1.92 µM); MIC P. aeruginosa GN_043, PmxR ([5]; P. aeruginosa GN_043, PmxR): 2 mg/L (≈ 1.92 µM); MIC, P. aeruginosa FADDI-PA070, PmxR ([5]; Table 5, polymyxin-resistant): 2 mg/L (≈ 1.92 µM); MIC, P. aeruginosa PA9704, PmxR [6]: 2 mg/L (≈ 1.92 µM); MIC, S. Aureus ATCC 25923, MSSA [7]: 16 mg/L (≈ 15.3 µM)
